Results taken from ChEMBL document CHEMBL1153670 (Bioorg Med Chem Lett, 1995).

What was measured:
[1] = system: HCT-116; assay: cells; conditions: Homo sapiens
[2] = system: M109; assay: In vivo cytotoxicity of intraperitoneally administered compound at dose 1.6 mg/kg/inj was determined against ip implanted murine M-109 lung carcinoma; format: organism-based; set-up: route intraperitoneal; conditions: mouse
[3] = system: HCT-116; assay: In vitro cytotoxicity was determined by inhibition against HCT116 cell line proliferation after 72 hours of incubation; format: cell-based; conditions: Homo sapiens, HCT-116, 72 h
[4] = system: HCT-116; assay: Potency relative to paclitaxel in a tubulin polymerization assay in HCT116 cell line; format: functional, Homo sapiens
[5] = system: M109; assay: In vivo cytotoxicity of intraperitoneally administered compound at dose 4 mg/kg/inj was determined against ip implanted murine M-109 lung carcinoma; format: organism-based; set-up: route intraperitoneal; conditions: mouse
[6] = system: M109; assay: In vivo cytotoxicity of intraperitoneally administered compound at dose 1 mg/kg/injection was determined against ip implanted murine M-109 lung carcinoma; format: organism-based; set-up: route intraperitoneal; conditions: mouse
[7] = system: M109; assay: In vivo cytotoxicity of intraperitoneally administered compound at dose 32 mg/kg/inj was determined against ip implanted murine M-109 lung carcinoma; format: organism-based; set-up: route intraperitoneal; conditions: mouse
[8] = system: M109; assay: In vivo cytotoxicity of intraperitoneally administered compound at dose 6 mg/kg/inj was determined against ip implanted murine M-109 lung carcinoma; format: organism-based; set-up: route intraperitoneal; conditions: mouse
[9] = system: M109; assay: In vivo cytotoxicity of intraperitoneally administered compound at dose 16 mg/kg/inj was determined against ip implanted murine M-109 lung carcinoma; format: organism-based; set-up: route intraperitoneal; conditions: mouse
[10] = system: M109; assay: In vivo cytotoxicity of intraperitoneally administered compound at dose 50 mgkg/inj was determined against ip implanted murine M-109 lung carcinoma; format: organism-based; set-up: dose mgkg, route intraperitoneal; conditions: mouse
[11] = system: M109; assay: In vivo cytotoxicity of intraperitoneally administered compound at dose 3 mg/kg/inj was determined against ip implanted murine M-109 lung carcinoma; format: organism-based; set-up: route intraperitoneal; conditions: mouse
[12] = system: M109; assay: In vivo cytotoxicity of intraperitoneally administered compound at dose 25 mgkg/inj was determined against ip implanted murine M-109 lung carcinoma; format: organism-based; set-up: dose mgkg, route intraperitoneal; conditions: mouse
[13] = system: M109; assay: In vivo cytotoxicity of intraperitoneally administered compound was determined against ip implanted murine M-109 lung carcinoma; NA means not active; format: organism-based; conditions: mouse

| Compound | IC50 [1] [nM] | IC50 [3] [nM] | Tubulin polymerization ratio [4] | also measured |
| --- | --- | --- | --- | --- |
| CC(=O)O[C@H]1C(=O)[C@@]2(C)C([C@H](OC(=O)c3ccccc3)[C@]3(O)C[C@H](OC(=O)[C@H](O)C(NC(=O)OC(C)(C)C)c4ccccc4)C(C)=C1C3(C)C)[C@]1(OC(=O)C3CC3)CO[C@@H]1C[C@@H]2O (some centres not stated) | 0.2 | 0.8 | 0.22 | T/C [2]: 115% |
| CC(=O)O[C@H]1C(=O)[C@@]2(C)C([C@H](OC(=O)c3ccccc3)[C@]3(O)C[C@H](OC(=O)[C@H](O)C(NC(=O)OC(C)(C)C)c4ccco4)C(C)=C1C3(C)C)[C@]1(OC(=O)C3CC3)CO[C@@H]1C[C@@H]2O (some centres not stated) | 0.33 | 1.3 | 0.33 | T/C [5]: 100% |
| CCCC(=O)O[C@@]12CO[C@@H]1C[C@H](O)[C@@]1(C)C(=O)[C@H](OC(C)=O)C3=C(C)[C@@H](OC(=O)[C@H](O)C(NC(=O)OC(C)(C)C)c4ccco4)C[C@@](O)([C@@H](OC(=O)c4ccccc4)C12)C3(C)C (some centres not stated) | 0.7 | 2.8 | 0.5 | T/C [6]: 96 mg kg-1 injection-1 |
| COC(=O)O[C@@]12CO[C@@H]1C[C@H](O)[C@@]1(C)C(=O)[C@H](OC(C)=O)C3=C(C)[C@@H](OC(=O)[C@H](O)C(NC(=O)OC(C)(C)C)c4ccco4)C[C@@](O)([C@@H](OC(=O)c4ccccc4)C12)C3(C)C (some centres not stated) | 0.4 | 1.6 | 0.66 | T/C [7]: 183% |
| CC(=O)O[C@H]1C(=O)[C@@]2(C)C([C@H](OC(=O)c3ccccc3)[C@]3(O)C[C@H](OC(=O)[C@H](O)C(NC(=O)c4ccccc4)c4ccccc4)C(C)=C1C3(C)C)[C@]1(OC(=O)C3CC3)CO[C@@H]1C[C@@H]2O (some centres not stated) | 0.25 | 1 | 0.24 | T/C [8]: 188 mg kg-1 injection-1 |
| CC(=O)O[C@H]1C(=O)[C@@]2(C)C([C@H](OC(=O)c3ccccc3)[C@]3(O)C[C@H](OC(=O)[C@H](O)C(NC(=O)c4ccccc4)c4ccco4)C(C)=C1C3(C)C)[C@]1(OC(=O)C3CCC3)CO[C@@H]1C[C@@H]2O (some centres not stated) | 0.4 | 1.6 | 0.29 | T/C [9]: 188 mg kg-1 injection-1 |
| CCOC(=O)O[C@@]12CO[C@@H]1C[C@H](O)[C@@]1(C)C(=O)[C@H](OC(C)=O)C3=C(C)[C@@H](OC(=O)[C@H](O)C(NC(=O)c4ccccc4)c4ccccc4)C[C@@](O)([C@@H](OC(=O)c4ccccc4)C12)C3(C)C (some centres not stated) | 0.25 | 1 | 0.64 | T/C [8]: 142 mg kg-1 injection-1 |
| COC(=O)O[C@@]12CO[C@@H]1C[C@H](O)[C@@]1(C)C(=O)[C@H](OC(C)=O)C3=C(C)[C@@H](OC(=O)[C@H](O)C(NC(=O)c4ccccc4)c4ccccc4)C[C@@](O)([C@@H](OC(=O)c4ccccc4)C12)C3(C)C (some centres not stated) | 0.5 | 2 | 0.41 | T/C [10]: 161% |
| CCOC(=O)O[C@@]12CO[C@@H]1C[C@H](O)[C@@]1(C)C(=O)[C@H](OC(C)=O)C3=C(C)[C@@H](OC(=O)[C@H](O)C(NC(=O)OC(C)(C)C)c4ccco4)C[C@@](O)([C@@H](OC(=O)c4ccccc4)C12)C3(C)C (some centres not stated) | 0.59 | 2.95 | 0.3 | T/C [5]: 144% |
| CC(=O)O[C@H]1C(=O)[C@@]2(C)C([C@H](OC(=O)c3ccccc3)[C@]3(O)C[C@H](OC(=O)[C@H](O)C(NC(=O)c4ccccc4)c4ccco4)C(C)=C1C3(C)C)[C@]1(OC(=O)C3CC3)CO[C@@H]1C[C@@H]2O (some centres not stated) | 0.22 | 0.9 | 0.33 | T/C [11]: 132 mg kg-1 injection-1 |
| CCCC(=O)O[C@@]12CO[C@@H]1C[C@H](O)[C@@]1(C)C(=O)[C@H](OC(C)=O)C3=C(C)[C@@H](OC(=O)[C@H](O)C(NC(=O)c4ccccc4)c4ccccc4)C[C@@](O)([C@@H](OC(=O)c4ccccc4)C12)C3(C)C (some centres not stated) | 0.25 | 1.1 | 0.61 | T/C [12]: 164 mg kg-1 injection-1 |
| CCOC(=O)O[C@@]12CO[C@@H]1C[C@H](O)[C@@]1(C)C(=O)[C@H](OC(C)=O)C3=C(C)[C@@H](OC(=O)[C@H](O)C(NC(=O)c4ccccc4)c4ccco4)C[C@@](O)([C@@H](OC(=O)c4ccccc4)C12)C3(C)C (some centres not stated) | 0.43 | 1.5 | 0.4 | T/C [13]: Not Active |
| COC(=O)O[C@@]12CO[C@@H]1C[C@H](O)[C@@]1(C)C(=O)[C@H](OC(C)=O)C3=C(C)[C@@H](OC(=O)[C@H](O)C(NC(=O)c4ccccc4)c4ccco4)C[C@@](O)([C@@H](OC(=O)c4ccccc4)C12)C3(C)C (some centres not stated) | 0.57 | 2.3 | 0.33 | T/C [13]: Not Active |
